Where two headings read alike, the source gives them in different places.
Experiments:
Assay type in all cases: cell-based
[1] = molecular target: T1, protein kinases (human kinome) (Homo sapiens, UniProt O14976); conditions: for logFC GAK: GAK (O14976)
T1 sequence (O14976 1-1311): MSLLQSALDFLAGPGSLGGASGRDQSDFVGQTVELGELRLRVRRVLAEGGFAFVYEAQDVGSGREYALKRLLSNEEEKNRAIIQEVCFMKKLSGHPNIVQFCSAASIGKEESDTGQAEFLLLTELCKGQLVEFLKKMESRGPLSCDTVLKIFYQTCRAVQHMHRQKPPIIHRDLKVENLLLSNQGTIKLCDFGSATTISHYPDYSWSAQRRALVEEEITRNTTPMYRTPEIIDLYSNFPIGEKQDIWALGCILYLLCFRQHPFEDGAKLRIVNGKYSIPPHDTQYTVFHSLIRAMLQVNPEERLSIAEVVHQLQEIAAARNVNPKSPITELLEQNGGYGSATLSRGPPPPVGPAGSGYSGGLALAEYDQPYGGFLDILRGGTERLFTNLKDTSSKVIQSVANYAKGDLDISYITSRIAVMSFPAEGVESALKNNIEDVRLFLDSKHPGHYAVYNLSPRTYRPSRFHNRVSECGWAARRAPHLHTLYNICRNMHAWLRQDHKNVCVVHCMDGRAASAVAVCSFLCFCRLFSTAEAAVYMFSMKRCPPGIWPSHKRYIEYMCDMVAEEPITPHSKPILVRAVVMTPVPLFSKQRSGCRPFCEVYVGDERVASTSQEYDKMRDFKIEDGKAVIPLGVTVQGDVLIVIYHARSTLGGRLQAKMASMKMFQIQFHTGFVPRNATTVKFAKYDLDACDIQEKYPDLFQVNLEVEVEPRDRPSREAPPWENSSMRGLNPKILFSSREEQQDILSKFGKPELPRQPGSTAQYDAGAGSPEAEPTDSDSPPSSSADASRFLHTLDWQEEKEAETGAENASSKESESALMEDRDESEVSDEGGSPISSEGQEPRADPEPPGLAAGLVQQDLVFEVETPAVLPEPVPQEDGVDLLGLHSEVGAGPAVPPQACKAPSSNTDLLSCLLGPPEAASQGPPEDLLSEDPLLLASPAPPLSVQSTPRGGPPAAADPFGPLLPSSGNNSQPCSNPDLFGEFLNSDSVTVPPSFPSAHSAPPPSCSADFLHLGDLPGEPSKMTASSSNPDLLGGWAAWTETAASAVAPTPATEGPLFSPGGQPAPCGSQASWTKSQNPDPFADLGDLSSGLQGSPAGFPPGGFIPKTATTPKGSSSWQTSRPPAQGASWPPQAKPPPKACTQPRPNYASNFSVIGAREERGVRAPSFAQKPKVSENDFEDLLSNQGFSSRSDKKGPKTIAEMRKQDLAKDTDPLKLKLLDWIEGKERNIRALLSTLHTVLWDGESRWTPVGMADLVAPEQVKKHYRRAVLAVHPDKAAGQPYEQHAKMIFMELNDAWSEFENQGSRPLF

[2] = molecular target: T2, protein kinases (human kinome) (Homo sapiens, UniProt Q9NYY8); conditions: Experiment wp016, 1 uM; direction down
T2 sequence (Q9NYY8 1-710): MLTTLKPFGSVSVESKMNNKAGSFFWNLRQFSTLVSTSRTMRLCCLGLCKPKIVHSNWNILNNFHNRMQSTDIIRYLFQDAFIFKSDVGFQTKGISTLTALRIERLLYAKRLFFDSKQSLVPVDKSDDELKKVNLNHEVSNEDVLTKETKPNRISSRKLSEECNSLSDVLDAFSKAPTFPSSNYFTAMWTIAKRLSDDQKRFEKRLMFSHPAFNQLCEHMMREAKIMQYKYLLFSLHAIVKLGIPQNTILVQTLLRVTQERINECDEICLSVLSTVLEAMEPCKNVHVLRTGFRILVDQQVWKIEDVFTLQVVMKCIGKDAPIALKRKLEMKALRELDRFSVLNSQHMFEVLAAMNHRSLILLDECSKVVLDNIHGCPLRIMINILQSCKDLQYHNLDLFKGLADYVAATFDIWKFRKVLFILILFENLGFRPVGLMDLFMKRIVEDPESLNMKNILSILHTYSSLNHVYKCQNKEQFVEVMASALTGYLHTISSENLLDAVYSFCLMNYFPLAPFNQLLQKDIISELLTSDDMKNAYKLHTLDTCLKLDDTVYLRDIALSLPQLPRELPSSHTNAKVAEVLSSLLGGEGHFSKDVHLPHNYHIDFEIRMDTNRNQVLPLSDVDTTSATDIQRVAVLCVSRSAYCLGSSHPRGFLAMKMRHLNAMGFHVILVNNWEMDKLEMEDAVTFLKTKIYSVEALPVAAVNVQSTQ

[3] = molecular target: protein kinases (human kinome) (Homo sapiens, UniProt P51451); conditions: for logFC BLK: BLK (P51451), direction down; for logFC of BLK: BLK P51451, experiment wp016; for logFC of BLK (P51451): down
protein kinases (human kinome) (Homo sapiens, UniProt P51451), sequence (P51451 whole entry): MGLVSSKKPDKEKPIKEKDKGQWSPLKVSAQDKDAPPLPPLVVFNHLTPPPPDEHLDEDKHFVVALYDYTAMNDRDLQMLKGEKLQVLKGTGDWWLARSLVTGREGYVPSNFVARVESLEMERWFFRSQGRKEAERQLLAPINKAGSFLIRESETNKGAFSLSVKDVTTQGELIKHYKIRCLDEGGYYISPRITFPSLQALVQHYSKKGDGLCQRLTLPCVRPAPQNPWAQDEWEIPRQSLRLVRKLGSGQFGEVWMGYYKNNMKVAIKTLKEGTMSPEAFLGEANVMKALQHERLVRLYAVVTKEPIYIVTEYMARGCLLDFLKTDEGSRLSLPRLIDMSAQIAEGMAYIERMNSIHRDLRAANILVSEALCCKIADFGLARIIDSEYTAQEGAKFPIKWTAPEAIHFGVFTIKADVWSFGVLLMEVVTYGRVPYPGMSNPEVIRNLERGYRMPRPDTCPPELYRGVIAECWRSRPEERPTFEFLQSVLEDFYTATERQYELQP

[4] = molecular target: protein kinases (human kinome) (Homo sapiens, UniProt Q00534); conditions: for logFC CDK6: CDK6 (Q00534), direction down; for logFC of CDK6 (Q00534): down
protein kinases (human kinome) (Homo sapiens, UniProt Q00534), sequence (Q00534 whole entry): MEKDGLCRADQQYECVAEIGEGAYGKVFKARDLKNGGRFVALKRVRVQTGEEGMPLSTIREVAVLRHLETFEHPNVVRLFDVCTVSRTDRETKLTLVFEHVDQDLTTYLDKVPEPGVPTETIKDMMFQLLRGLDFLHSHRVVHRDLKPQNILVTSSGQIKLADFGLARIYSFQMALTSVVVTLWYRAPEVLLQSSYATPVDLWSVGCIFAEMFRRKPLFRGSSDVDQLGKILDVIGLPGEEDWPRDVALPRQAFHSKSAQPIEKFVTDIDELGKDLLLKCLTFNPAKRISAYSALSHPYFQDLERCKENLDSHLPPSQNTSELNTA

[5] = molecular target: protein kinases (human kinome) (Homo sapiens, UniProt Q9H0K1); conditions: for logFC of SIK2: Accession Q9H0K1; for logFC SIK2 (Q9H0K1): direction of change down
protein kinases (human kinome) (Homo sapiens, UniProt Q9H0K1), sequence (Q9H0K1 whole entry): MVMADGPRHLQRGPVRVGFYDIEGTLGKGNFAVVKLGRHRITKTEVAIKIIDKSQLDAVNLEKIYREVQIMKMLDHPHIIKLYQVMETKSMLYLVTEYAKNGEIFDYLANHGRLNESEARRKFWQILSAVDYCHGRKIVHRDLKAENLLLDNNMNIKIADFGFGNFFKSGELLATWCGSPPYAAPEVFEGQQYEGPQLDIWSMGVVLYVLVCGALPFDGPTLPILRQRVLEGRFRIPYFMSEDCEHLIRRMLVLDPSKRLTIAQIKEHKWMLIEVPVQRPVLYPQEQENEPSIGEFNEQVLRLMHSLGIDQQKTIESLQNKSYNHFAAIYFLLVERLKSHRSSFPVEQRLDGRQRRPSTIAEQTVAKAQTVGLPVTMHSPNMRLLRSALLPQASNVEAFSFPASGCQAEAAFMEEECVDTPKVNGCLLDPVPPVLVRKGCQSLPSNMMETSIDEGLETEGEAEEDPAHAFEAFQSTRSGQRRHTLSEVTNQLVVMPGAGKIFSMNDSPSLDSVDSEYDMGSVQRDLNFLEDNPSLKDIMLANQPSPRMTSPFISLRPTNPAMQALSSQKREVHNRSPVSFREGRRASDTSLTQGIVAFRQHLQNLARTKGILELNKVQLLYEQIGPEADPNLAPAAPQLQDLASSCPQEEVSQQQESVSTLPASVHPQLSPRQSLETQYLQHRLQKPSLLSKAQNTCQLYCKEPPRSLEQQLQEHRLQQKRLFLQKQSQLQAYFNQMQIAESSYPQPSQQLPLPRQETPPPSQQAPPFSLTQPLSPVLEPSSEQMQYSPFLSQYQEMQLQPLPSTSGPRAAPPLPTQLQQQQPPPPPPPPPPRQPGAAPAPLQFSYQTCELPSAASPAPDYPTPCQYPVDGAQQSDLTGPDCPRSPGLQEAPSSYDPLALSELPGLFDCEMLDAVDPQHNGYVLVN

CC(C)S(=O)(=O)c1ccccc1Nc1nc(Nc2ccc(N3CCN(CCOCCNC(=O)CNc4cccc5c4C(=O)N(C4CCC(=O)NC4=O)C5=O)CC3)cc2)ncc1Cl (stereo not drawn) [SK.3.91]
logFC of GAK (O14976) ([1]; Experiment wp016, 1 uM, down): −0.3526
logFC of GAK (O14976) ([1]; Experiment wp016, down): −0.5011
logFC of GAK (O14976) ([1]; Experiment wp105, down): −0.3832
logFC GAK ([1]; direction down, experiment wp016): −0.5011
logFC GAK ([1]; direction down, experiment wp018, 1 uM): −0.3526
logFC GAK ([1]; direction down, experiment wp105): −0.3832
logFC GAK ([1]; direction down, experiment wp160, 4 hr): −0.3241
logFC GAK ([1]; experiment wp160, 4 hr, down): −0.3241
logFC FASTKD2 (Q9NYY8) [2]: −0.4507
logFC BLK ([3]; experiment wp103): −1.625
logFC BLK ([3]; experiment wp107): −1.649
logFC BLK ([3]; experiment wp133, 1 hr): −0.3727
logFC BLK ([3]; experiment wp133, 2 hr): −0.8217
logFC BLK ([3]; experiment wp133, 4 hr): −1.49
logFC BLK ([3]; experiment wp160, 2 hr): −0.8744
logFC BLK ([3]; experiment wp160, 4 hr): −1.678
logFC of BLK [3]: −1.446
logFC of BLK ([3]; 1 uM): −1.977
logFC of BLK (P51451) ([3]; Experiment wp016, 1 uM): −1.977
logFC of BLK (P51451) ([3]; Experiment wp016): −1.446
logFC of BLK (P51451) ([3]; Experiment wp103): −1.625
logFC of BLK (P51451) ([3]; Experiment wp107): −1.649
logFC of BLK (P51451) ([3]; Experiment wp133, 1 hr): −0.3727
logFC of BLK (P51451) ([3]; Experiment wp133, 2 hr): −0.8217
logFC of BLK (P51451) ([3]; Experiment wp133, 4 hr): −1.49
logFC of BLK (P51451) ([3]; Experiment wp160, 2 hr): −0.8744
logFC of BLK (P51451) ([3]; Experiment wp160, 4 hr): −1.678
logFC CDK6 ([4]; experiment wp016): −0.8832
logFC CDK6 ([4]; experiment wp016, 1 uM): −1.149
logFC CDK6 ([4]; experiment wp103): −0.9349
logFC CDK6 ([4]; experiment wp105): −0.5421
logFC CDK6 ([4]; experiment wp107): −1.012
logFC CDK6 ([4]; experiment wp133, 1 hr): −0.3542
logFC CDK6 ([4]; experiment wp133, 2 hr): −0.6404
logFC CDK6 ([4]; experiment wp133, 4 hr): −1.05
logFC CDK6 ([4]; experiment wp160, 1 hr): −0.3255
logFC CDK6 ([4]; experiment wp160, 2 hr): −0.5948
logFC CDK6 ([4]; experiment wp160, 4 hr): −1.133
logFC of CDK6 (Q00534) ([4]; Experiment wp016, 1 uM): −1.149
logFC of CDK6 (Q00534) ([4]; Experiment wp016): −0.8832
logFC of CDK6 (Q00534) ([4]; Experiment wp103): −0.9349
logFC of CDK6 (Q00534) ([4]; Experiment wp105): −0.5421
logFC of CDK6 (Q00534) ([4]; Experiment wp107): −1.012
logFC of CDK6 (Q00534) ([4]; Experiment wp133, 1 hr): −0.3542
logFC of CDK6 (Q00534) ([4]; Experiment wp133, 2 hr): −0.6404
logFC of CDK6 (Q00534) ([4]; Experiment wp133, 4 hr): −1.05
logFC of CDK6 (Q00534) ([4]; Experiment wp160, 1 hr): −0.3255
logFC of CDK6 (Q00534) ([4]; Experiment wp160, 2 hr): −0.5948
logFC of CDK6 (Q00534) ([4]; Experiment wp160, 4 hr): −1.133
logFC of SIK2 ([5]; experiment wp105): −0.5386
logFC of SIK2 ([5]; experiment wp107): −1.568
logFC of SIK2 ([5]; experiment wp114): −0.5757
logFC of SIK2 ([5]; experiment wp133, 2 hr): −0.4938
logFC of SIK2 ([5]; experiment wp133, 4 hr): −1.035
logFC of SIK2 ([5]; experiment wp160, 2 hr): −0.5413
logFC of SIK2 ([5]; experiment wp160, 4 hr): −0.8364
logFC SIK2 (Q9H0K1) ([5]; Experiment wp105): −0.5386
logFC SIK2 (Q9H0K1) ([5]; Experiment wp114): −0.5757
logFC SIK2 (Q9H0K1) ([5]; experiment wp107): −1.568
logFC SIK2 (Q9H0K1) ([5]; experiment wp133, 2 hr): −0.4938
logFC SIK2 (Q9H0K1) ([5]; experiment wp133, 4 hr): −1.035
logFC SIK2 (Q9H0K1) ([5]; experiment wp160, 2 hr): −0.5413
logFC SIK2 (Q9H0K1) ([5]; experiment wp160, 4 hr): −0.8364
